Assays:
[1] = test system: carrageenin edema of rat paws; assay: Inhibition of carrageenin edema of rat paws; assay type: in vivo; details: 200 mg/kg perorally, rats
Protocol: The inflammation-inhibiting activity of the compounds of Formula I is expressed, among others, by an inhibition of carrageenin edema in rat paws (see Example 9).
The carrageenin edema is employed in international literature as a model system for inflammation-triggering (prophlogistic) procedures, and offers the possibility of in vivo testing of compounds for inflammation-inhibiting (antiphlogistic) activity.
2(2'-naphthoxy)-acethydroxamic acid is supplied to 10 rats perorally in a dose of 200 mg/kg body weight with simultaneous delivery of 0.1 ml 1% carrageenin solution per animal. The extent of the paw edema is measured hourly after the application, and compared with the control group.

guinea pig trachia = assay: Carbachol-induced spasm of guinea pig trachea; details: Cavia porcellus; spasm triggered by 3.9 μM carbachol; read-out: active substance concentration at which strong to very strong dilatation was clearly determinable
Source text: The testing of the compounds for antiasthmatic activity follows on isolated lung strips and isolated tracheal rings from guinea pigs according to measuring methods known from the literature (supra) in modified form. The measurements follow in thermostatically controlled organ bath, isotonically using a contraction measuring arrangement with lift receiver, measuring coil, measuring amplifier (inductive measurement with the aid of a high frequency resonant circuit). The gasification follows with air. The suspension solution has the following composition: 39.46 g NaCl, 2.2 g KCl, 6.07 g Tris, 1.0 g CaCl2, 9.9 g glucose, 1.0 ml saturated MgCl2 -solution, 43 ml 1N HCl; pH 7.4.
(b) Activity on the carbachol-induced spasm of guinea pig trachia
The spasms are triggered by 3.9 μM carbachol.

O=C(COc1ccc2ccccc2c1)NO [2(2'-naphthoxy)-acethydroxamic acid]
Restraint (%) of carrageenin edema ([1]; 1 h): 27.3%
Restraint (%) of carrageenin edema ([1]; 2 h): 27.3%
Restraint (%) of carrageenin edema ([1]; 3 h): 20.2%
Restraint (%) of carrageenin edema ([1]; 4 h): 35.3%
Restraint (%) of carrageenin edema ([1]; 5 h): 21.4%
minimal effective concentration (guinea pig trachia): 50 µM

From US4670469A, “Hydroxamic acid and pharmaceutical preparations containing the same” (VEB Arzneimittelwerk Dresden, priority 1983, dated 1987)
